Data reported in US20150140020A1, “PHARMACEUTICAL COMPOSITION FOR TREATING ADVERSE REACTIONS DUE TO ADMINISTRATION OF SPIEGELMERS” (Freie Universitaet Berlin, priority 2009, published 2015).
[L-RNA-N] = L-ribonucleotide (mirror-image RNA) (N: the base); {FAM} = fluorescein label

Columns and labels:
Format in all cases: biochemical
[1] = test system: L-target (Seq-ID 1 RNA with L-nucleotides); assay: Cleavage assay: L-target with D-ribozyme; settings: FIG. 2; MgCl2 0-25 mM; 0.2 μM target with 2 μM ribozyme
Procedure: (§1) The activities of L-ribozymes and D-ribozymes were measured in various conditions. The basic conditions were as follows. […] in 50 mM Tris-HCl buffer, pH 7.5, at 20° C. for 2 hours (ribozymes/target ratio therefore 10:1, 1:1 and 1:10). Before the reaction, target RNA and ribozyme were denatured for 2 minutes at 70° C. and cooled slowly (1° C./min) in the heating unit to 25° C. The influence of the Mg^2+ ions at concentration from 0.1 to 25 mM was investigated. Cleavage products were separated on 20% polyacrylamide gel electrophoresis in the presence of 8 M urea in 0.09 M Tris-borate buffer, pH 8.3. The fluorescence was analyzed on Phosphoimager Fuji Film FLA 5100. The data were obtained with the program Fuji Analysis Program. Diagrams were prepared with Excel.
(§2) The following were prepared as target sequences by way of contract synthesis by the company ChemGenes Corporation, Wilmington, USA: • Seq-ID 1: 5′-FAM-ACAGUCGGUCGCC-3′ (RNA, both with D-nucleotides and with L-nucleotides) and • Seq-ID 2: 5′-FAM-ACAGTCGGTCGCC-3′ (DNA, both with D-nucleotides and with L-nucleotides).
All synthesis products were labeled with fluorescein at the 5′-end. […]

[2] = test system: D-target (Seq-ID 1 RNA with D-nucleotides); assay: Cleavage assay: D-target with D-ribozyme; settings: FIG. 4B; MgCl2 1-25 mM; 10-fold ribozyme excess
Procedure: as §1, §2
(§3) All synthesis products were labeled with fluorescein at the 5′-end.

L-target = assay: Cleavage of L-target by L-ribozyme in human serum; settings: FIG. 12; conditions of human serum
[3] = test system: D-target (Seq-ID 1 RNA with D-nucleotides); assay: Cleavage assay: D-target with L-ribozyme
Procedure: as §1, §2, §3
C is the control (L-target+L-ribozyme), tracks 1 to 5 are the various MgCl2 concentrations given in the diagram (0-25 mM) for target without ribozyme, tracks 6 to 9 0.2 μM target with 2 μM ribozyme.

[4] = test system: L-target (Seq-ID 1 RNA with L-nucleotides); assay: Cleavage assay: L-target with L-ribozyme
Procedure: as §1, §2, §3

Row | Substance | cleavage of L-target by D-ribozyme [1] | proportion of cleavage products of D-target with D-ribozyme as a function of MgCl2 concentration [2] | cleavage of L-target by L-ribozyme in human serum (L-target) | cleavage of D-target by L-ribozyme ([3]; FIG. 2, MgCl2 0-25 mM, 0.2 μM target with 2 μM ribozyme) | proportion of cleavage products of the D-target by L-ribozyme as a function of MgCl2 concentration ([3]; FIG. 2C, increasing Mg concentration) | proportion of cleavage products of the D-target by L-ribozyme over time ([3]; FIG. 3, 10 mM MgCl2, times 0 to 256 min, compared with L-target/D-ribozyme) | proportion of cleavage products of L-target with L-ribozyme as a function of MgCl2 concentration ([4]; FIG. 4B, MgCl2 1-25 mM, 10-fold ribozyme excess) | cleavage of L-target by L-ribozyme ([4]; FIGS. 4 to 11, all usual conditions (0.1-25 mM MgCl2, ribozyme excess to deficit)) | turnover rates of L-ribozyme with L-target ([4]; FIGS. 4 to 11, relative to D-ribozyme with D-target)
1 | 5′-FAM-GGCGACCCUGAUGAGGCCGAAAGGCCGAAACUGU-3′ (RNA, 5' {FAM}, backbone not given here) [D-ribozyme] | does not cleave | increases with increasing Mg concentration |  |  |  |  |  |  | 
2 | 5′-FAM-GGCGACCCUGAUGAGGCCGAAAGGCCGAAACUGU-3′ (all [L-RNA-N], 5' {FAM}, backbone not given here) [L-ribozyme] |  |  | functions effectively | a notable reaction certainly occurs | increases with increasing Mg concentration | increases with time | increases with increasing Mg concentration | effectively cuts | at least correspond to those of a D-ribozyme with a D-target
